Laboratory results taken from patent publication US11613775B2, “Measuring DNA polymerase fidelity” (Northwestern University, priority 2017, dated 2023).
Where two headings read alike, the source gives them in different places.

Tests used:
[1] = previously reported; cited from earlier work
[2] = previously reported; cited from earlier work; remark: listed apart in the source
[3] = system: extension templates (TT, TA, TC, and TG); test: Nucleotide imbalance fidelity assay (rare base titration, NGS readout); assay type: biochemical
Description: Extension templates (TT, TA, TC, and TG) were designed for all four rare base contexts (Table 2). Templates were 100 bp in length and contained a single T, A, C, or G, or Error-Enriched Site (EES), near the middle of the template. Extension templates were designed to contain only three bases, with the exception of the EES (fourth base) and the extension primer-binding site. For each template type, the EES was flanked by 3 degenerate bases before the EES and 3 degenerate bases after the EES in order to create the following sequence context libraries: VVVTVVV, BBBABBB, DDDCDDD, and HHHGHHH (using IUPAC ambiguity codes). Because each of the 6 degenerate sites can be composed of 3 possible bases, each template library contained 729 (3^6) unique sequence contexts surrounding the EES. With the exception of the 6 bases flanking the EES, template sequences within a given library were identical. All templates contained a 3′ dideoxy-C modification to prevent extension from the template strand during a final PCR amplification step. Extension templates were purified via PAGE (Integrated DNA Technologies).
Individual annealing reactions were performed for each template type (TT, TA, TC, TG). Primer/template DNA was prepared by mixing PEXT with each template library in a 1:1.5 molar ratio (70 nM primer: 105 nM template) in a 1× reaction buffer specific to each DNA polymerase being tested (Table 1). The extension primer was annealed to template DNA by incubation at 95° C. for 2 minutes, followed by a −0.1° C./sec ramp until reaching 4° C.
Primer extension reactions were set up in duplicate for each condition being tested. Biological replicate reactions were performed in parallel, with the same annealed primer/template sample used for both replicates. For each DNA polymerase and rare base context of interest, 9 rare base concentrations were tested (log-fold dilutions from 10 μM-0.1 pM) while the concentration of the 3 non-rare bases was held constant at 10 μM (Bioline).
Primer extension reactions consisted of 1 μL of annealing reaction, 1× dNTP stocks ([…]+variable [dRTP]), variable DNA polymerase units, and 1×DNA polymerase reaction buffer in a 10 μL reaction. Extension reaction conditions for DNA polymerases tested are described in Table 1. Extension reactions were incubated for 1 hour and stored at −20° C. until purification. The Fluent Automated Liquid Handling Platform (Tecan) was used to set up all primer extension reactions.
The sample preparation pipeline for NGS was adapted from a previous protocol (Ref. 28; herein incorporated by reference in its entirety). Products from individual rare base extension reactions were column purified in 96-well plate format using the ZR-96 DNA Clean & Concentrator-5 (Deep well format) kit (Zymo Research). Purified DNA products were eluted in 10 μL of water and stored at −20° C. until ligation. Next, a 22 bp universal tag, common sequence 2 (CS2) of the Fluidigm Access Array Barcode Library for Illumina Sequencers (Fluidigm), synthesized as duplex DNA with a 5′ phosphate modification and PAGE purified (Integrated DNA Technologies, Table 2) was blunt-end ligated to the 3′ end of extended products. Ligation reactions were carried out in 10 μL volumes and consisted of 6 μL of purified product, 30 nM CS2 duplex DNA, 1× T4 DNA Ligase Reaction Buffer (New England Biolabs), and 2000 Units of T4 DNA Ligase (New England Biolabs). Ligation reactions were incubated at 16° C. for 16 hours. Ligated products were stored at −20° C. until PCR.
PCR was performed with barcoded primer sets from the Access Array Barcode Library for Illumina Sequencers (Fluidigm) to label extension products from up to 384 individual reactions. Each PCR primer set contained a unique barcode in the reverse primer. From 5′-3′, the forward PCR primer (PE1_CS1) contained a 25 base paired-end Illumina adapter 1 sequence followed by CS1. The binding target of the forward PCR primer was the reverse complement of the CS1 tag built into PEXT. […]

[4] = previously reported; cited from earlier work; remark: listed apart in the source
[5] = previously reported; cited from earlier work; remark: listed apart in the source
[6] = previously reported; cited from earlier work; remark: listed apart in the source
[7] = previously reported; cited from earlier work; remark: listed apart in the source
lacZ template = conditions: cited from earlier work
[8] = "C" template context, lowest [dRTP] tested (10^−7 μM)
[9] = All Four Contexts, fit of duplicate data from all four template contexts (n = 8), average FC50
[10] = BBBABBB template context, n = 2
[11] = DDDCDDD template context, n = 2
[12] = HHHGHHH template context, n = 2
[13] = VVVTVVV template context, n = 2

In the case of “Phi29: high fidelity polymerase with proofreading ability (New England Biolabs)”, the “Error Rate” value [1] is given as 0.0000095 errors/bp, the “Error Rate” value [2] is given as 0.000003 errors/bp and the preferred error type [3, 8] is given as “C:dTTP”. For the same molecule, the FC50 [3, 9] was 0.000861 µM, the FC50 [3, 10] was 0.000877 µM and the preferred error type ([3]; DDDCDDD context, −1 G) was “C:dATP”. The preferred error type ([3]; DDDCDDD context, −1 T) was “C:dTTP”, the FC50 [3, 11] was 0.00125 µM and the FC50 [3, 12] was 0.00139 µM. For the same molecule, the FC50 [3, 13] was 0.000475 µM and the “estimated (FC50-derived) error rate versus mean of the two reported literature error rates” value ([3]; average FC50 converted with Equation 9) was 2.7 fold.

For “Taq: widely used commercial DNA polymerase (New England Biolabs)”, the “Error Rate” value [4] is listed as 0.0002 subs/bp, the “Error Rate” value [5] is listed as 0.00011 subs/bp and the “Error Rate” value [6] is listed as 0.00021 errors/bp. For the same molecule, the preferred error type ([3]; "A" template context, lowest [dRTP] tested (10^−7 μM)) was “A:dATP”, the preferred error type [3, 8] was “C:dATP” and the preferred error type ([3]; "G" template context, lowest [dRTP] tested (10^−7 μM)) was “G:dTTP”. It also gave an FC50 [3, 9] of 0.00267 µM, an FC50 [3, 10] of 0.00261 µM and an FC50 [3, 11] of 0.00215 µM. For the same molecule, the FC50 [3, 12] was 0.00208 µM, the FC50 [3, 13] was 0.00405 µM and the “Error Rate” value [7] was 0.00018 errors/bp.

B1: Sulfolobus solfataricus Dpo4: a close homologue of S. islandicus Dpo4, literature data (protein, UniProt Q97W02 1-352, looked up)
DNA polymerase IV: MIVLFVDFDYFYAQVEEVLNPSLKGKPVVVCVFSGRFEDSGAVATANYEARKFGVKAGIPIVEAKKILPNAVYLPMRKEVYQQVSSRIMNLLREYSEKIEIASIDEAYLDISDKVRDYREAYNLGLEIKNKILEKEKITVTVGISKNKVFAKIAADMAKPNGIKVIDDEEVKRLIRELDIADVPGIGNITAEKLKKLGINKLVDTLSIEFDKLKGMIGEAKAKYLISLARDEYNEPIRTRVRKSIGRIVTMKRNSRNLEEIKPYLFRAIEESYYKLDKRIPKAIHVVAVTEDLDIVSRGRTFPHGISKETAYSESVKLLQKILEEDERKIRRIGVRFSKFIEAIGLDKFFDT
In the case of B1, the error preferences (lacZ template; at A sites) is listed as “A:dATP>A:dCTP>A:dGTP”, the error preferences (lacZ template; at C sites) is listed as “C:dCTP>C:dATP=C:dTTP” and the error preferences (lacZ template; at G sites) is listed as “G:dTTP>G:dGTP>G:dATP”. For the same molecule, the error preferences (lacZ template; at T sites) was “T:dGTP>T:dCTP T:dTTP”.
